Results as given in ChEMBL document CHEMBL5303573, “Mapping human microbiome drug metabolism by gut bacteria and their genes” (Nature, 2019).

Assays:
[1] = The drug is tested on Bacteroides fragilis strain: ATCC43859 for biotransformation. The drug concentrations were measured before and after a 12-h incubation by liquid-chromatography-coupled mass spectrometry (LC–MS); details: 2 µM
[2] = The drug is tested on Edwardsiella tarda strain: ATCC23685 for biotransformation. The drug concentrations were measured before and after a 12-h incubation by liquid-chromatography-coupled mass spectrometry (LC–MS); details: 2 µM
[3] = The drug is tested on Bacteroides xylanisolvens strain: DSM18836 for biotransformation. The drug concentrations were measured before and after a 12-h incubation by liquid-chromatography-coupled mass spectrometry (LC–MS); details: 2 µM
[4] = The drug is tested on Clostridium ramosum strain: DSM1402 for biotransformation. The drug concentrations were measured before and after a 12-h incubation by liquid-chromatography-coupled mass spectrometry (LC–MS); details: thomasclavelia ramosa, 2 µM
[5] = The drug is tested on Eubacterium ventriosum strain: ATCC27560 for biotransformation. The drug concentrations were measured before and after a 12-h incubation by liquid-chromatography-coupled mass spectrometry (LC–MS); format: ADME; parameters: dose 2 uM, timepoint 0 vs 12 hours; details: 2 µM
[6] = enterocloster bolteae, 12 h, 2 µM
Description: The drug is tested on Clostridium bolteae strain: ATCCBAA-613 for biotransformation. The drug concentrations were measured before and after a 12-h incubation by liquid-chromatography-coupled mass spectrometry (LC–MS)

[7] = The drug is tested on Clostridium asparagiforme strain: DSM15981 for biotransformation. The drug concentrations were measured before and after a 12-h incubation by liquid-chromatography-coupled mass spectrometry (LC–MS); format: ADME; parameters: dose 2 uM, timepoint 0 vs 12 hours; details: enterocloster asparagiformis, 2 µM
[8] = The drug is tested on Providencia stuartii strain: ATCC25827 for biotransformation. The drug concentrations were measured before and after a 12-h incubation by liquid-chromatography-coupled mass spectrometry (LC–MS); details: 2 µM
[9] = parabacteroides johnsonii, 12 h, 2 µM
Description: The drug is tested on Parabacteroides johnsonii strain: DSM18315 for biotransformation. The drug concentrations were measured before and after a 12-h incubation by liquid-chromatography-coupled mass spectrometry (LC–MS)

[10] = The drug is tested on Parabacteroides merdae strain: ATCC43184 for biotransformation. The drug concentrations were measured before and after a 12-h incubation by liquid-chromatography-coupled mass spectrometry (LC–MS); details: 2 µM
[11] = The drug is tested on Bifidobacterium longum subsp. Infantis strain: CCUG52486 for biotransformation. The drug concentrations were measured before and after a 12-h incubation by liquid-chromatography-coupled mass spectrometry (LC–MS); details: 2 µM
[12] = bacteroides thetaiotaomicron, 12 h, 2 µM
Description: The drug is tested on Bacteroides thetaiotaomicron strain: 3731 for biotransformation. The drug concentrations were measured before and after a 12-h incubation by liquid-chromatography-coupled mass spectrometry (LC–MS)

[13] = The drug is tested on Ruminococcus torques strain: ATCC27756 for biotransformation. The drug concentrations were measured before and after a 12-h incubation by liquid-chromatography-coupled mass spectrometry (LC–MS); format: ADME; parameters: dose 2 uM, timepoint 0 vs 12 hours; details: 2 µM
[14] = The drug is tested on Ruminococcus gnavus strain: ATCC29149 for biotransformation. The drug concentrations were measured before and after a 12-h incubation by liquid-chromatography-coupled mass spectrometry (LC–MS); details: mediterraneibacter gnavus, 2 µM
[15] = The drug is tested on Bacteroides caccae strain: ATCC43185 for biotransformation. The drug concentrations were measured before and after a 12-h incubation by liquid-chromatography-coupled mass spectrometry (LC–MS); details: 2 µM
[16] = bacteroides stercoris, 12 h, 2 µM
Description: The drug is tested on Bacteroides stercoris strain: ATCC43183 for biotransformation. The drug concentrations were measured before and after a 12-h incubation by liquid-chromatography-coupled mass spectrometry (LC–MS)

[17] = The drug is tested on Enterococcus faecalis strain: V583 for biotransformation. The drug concentrations were measured before and after a 12-h incubation by liquid-chromatography-coupled mass spectrometry (LC–MS); details: 2 µM
[18] = The drug is tested on Alistipes indistinctus strain: DSM22520 for biotransformation. The drug concentrations were measured before and after a 12-h incubation by liquid-chromatography-coupled mass spectrometry (LC–MS); details: 2 µM
[19] = limosilactobacillus reuteri cf48-3a, 12 h, 2 µM
Description: The drug is tested on Lactobacillus reuteri CF48-3A strain: BEI HM-102 for biotransformation. The drug concentrations were measured before and after a 12-h incubation by liquid-chromatography-coupled mass spectrometry (LC–MS)

[20] = The drug is tested on Escherichia coli strain: BW25113 for biotransformation. The drug concentrations were measured before and after a 12-h incubation by liquid-chromatography-coupled mass spectrometry (LC–MS); details: 2 µM
[21] = anaerostipes sp., 12 h, 2 µM
Description: The drug is tested on Anaerostipes sp. strain: fecal isolate for biotransformation. The drug concentrations were measured before and after a 12-h incubation by liquid-chromatography-coupled mass spectrometry (LC–MS)

[22] = The drug is tested on Clostridium scindens strain: ATCC35704 for biotransformation. The drug concentrations were measured before and after a 12-h incubation by liquid-chromatography-coupled mass spectrometry (LC–MS); details: 2 µM
[23] = The drug is tested on Bacteroides fragilis strain: HMW610 for biotransformation. The drug concentrations were measured before and after a 12-h incubation by liquid-chromatography-coupled mass spectrometry (LC–MS); details: 2 µM
[24] = The drug is tested on Dorea formicigenerans strain: ATCC27755 for biotransformation. The drug concentrations were measured before and after a 12-h incubation by liquid-chromatography-coupled mass spectrometry (LC–MS); details: 2 µM
[25] = The drug is tested on Collinsella intestinalis strain: DSM13280 for biotransformation. The drug concentrations were measured before and after a 12-h incubation by liquid-chromatography-coupled mass spectrometry (LC–MS); details: 2 µM
[26] = The drug is tested on Anaerotruncus colihominis strain: DSM17241 for biotransformation. The drug concentrations were measured before and after a 12-h incubation by liquid-chromatography-coupled mass spectrometry (LC–MS); details: 2 µM
[27] = The drug is tested on Anaerococcus hydrogenalis strain: DSM7454 for biotransformation. The drug concentrations were measured before and after a 12-h incubation by liquid-chromatography-coupled mass spectrometry (LC–MS); details: 2 µM
[28] = The drug is tested on Bacteroides vulgatus strain: ATCC8482 for biotransformation. The drug concentrations were measured before and after a 12-h incubation by liquid-chromatography-coupled mass spectrometry (LC–MS); details: phocaeicola vulgatus, 2 µM
[29] = The drug is tested on Bifidobacterium breve strain: DSM20213 for biotransformation. The drug concentrations were measured before and after a 12-h incubation by liquid-chromatography-coupled mass spectrometry (LC–MS); details: 2 µM
[30] = The drug is tested on Collinsella aerofaciens strain: ATCC25986 for biotransformation. The drug concentrations were measured before and after a 12-h incubation by liquid-chromatography-coupled mass spectrometry (LC–MS); details: 2 µM
[31] = parabacteroides distasonis, 12 h, 2 µM
Description: The drug is tested on Parabacteroides distasonis strain: ATCC8503 for biotransformation. The drug concentrations were measured before and after a 12-h incubation by liquid-chromatography-coupled mass spectrometry (LC–MS)

[32] = akkermansia muciniphila, 12 h, 2 µM
Description: The drug is tested on Akkermansia muciniphila strain: ATCC BAA-835 for biotransformation. The drug concentrations were measured before and after a 12-h incubation by liquid-chromatography-coupled mass spectrometry (LC–MS)

[33] = The drug is tested on Bacteroides pectinophilus strain: ATCC43243 for biotransformation. The drug concentrations were measured before and after a 12-h incubation by liquid-chromatography-coupled mass spectrometry (LC–MS); details: 2 µM
[34] = bifidobacterium adolescentis, 12 h, 2 µM
Description: The drug is tested on Bifidobacterium adolescentis strain: ATCC 15703 for biotransformation. The drug concentrations were measured before and after a 12-h incubation by liquid-chromatography-coupled mass spectrometry (LC–MS)

[35] = The drug is tested on Blautia luti strain: DSM14534 for biotransformation. The drug concentrations were measured before and after a 12-h incubation by liquid-chromatography-coupled mass spectrometry (LC–MS); format: ADME; parameters: dose 2 uM, timepoint 0 vs 12 hours; details: 2 µM
[36] = The drug is tested on Coprococcus comes strain: ATCC27758 for biotransformation. The drug concentrations were measured before and after a 12-h incubation by liquid-chromatography-coupled mass spectrometry (LC–MS); format: ADME; parameters: dose 2 uM, timepoint 0 vs 12 hours; details: 2 µM
[37] = The drug is tested on Bacteroides dorei strain: DSM17855 for biotransformation. The drug concentrations were measured before and after a 12-h incubation by liquid-chromatography-coupled mass spectrometry (LC–MS); details: phocaeicola dorei, 2 µM
[38] = The drug is tested on Clostridium symbiosum strain: ATCC14940 for biotransformation. The drug concentrations were measured before and after a 12-h incubation by liquid-chromatography-coupled mass spectrometry (LC–MS); details: 2 µM
[39] = segatella copri, 12 h, 2 µM
Description: The drug is tested on Prevotella copri strain: DSM18205 for biotransformation. The drug concentrations were measured before and after a 12-h incubation by liquid-chromatography-coupled mass spectrometry (LC–MS)

[40] = The drug is tested on Enterobacter cancerogenus strain: ATCC35316 for biotransformation. The drug concentrations were measured before and after a 12-h incubation by liquid-chromatography-coupled mass spectrometry (LC–MS); details: 2 µM

Measured: Bacterial Biotransformation

Nc1nc(NC2CC2)c2ncn([C@H]3C=C[C@@H](CO)C3)c2n1.Nc1nc(NC2CC2)c2ncn([C@H]3C=C[C@@H](CO)C3)c2n1.O=S(=O)(O)O [ABACAVIR SULFATE]
Compound NOT metabolized: all assays above
